According to patent publication US5932607A, “Imidazole derivatives and process for preparing the same” (Kyorin Pharmaceutical Co., Ltd., priority 1993, dated 1999):
Like-named read-outs stand apart in the source and are kept apart here.

Columns and labels:
Type in all cases: cell-based, guinea pig (male Hartley)
[1] = biological target: T1, muscarinic receptor (atrium, cardiac) (Cavia porcellus, UniProt H0VRN8); test: Anticholinergic action in guinea-pig atria (antagonism of ACh response, Schild method); conditions: for Kb: read-out: Anticholinergic activity (pA2) Atrium (converted)
T1 construct: from tissue; host or cells: guinea-pig isolated atria (male Hartley)
T1 sequence (H0VRN8 1-466): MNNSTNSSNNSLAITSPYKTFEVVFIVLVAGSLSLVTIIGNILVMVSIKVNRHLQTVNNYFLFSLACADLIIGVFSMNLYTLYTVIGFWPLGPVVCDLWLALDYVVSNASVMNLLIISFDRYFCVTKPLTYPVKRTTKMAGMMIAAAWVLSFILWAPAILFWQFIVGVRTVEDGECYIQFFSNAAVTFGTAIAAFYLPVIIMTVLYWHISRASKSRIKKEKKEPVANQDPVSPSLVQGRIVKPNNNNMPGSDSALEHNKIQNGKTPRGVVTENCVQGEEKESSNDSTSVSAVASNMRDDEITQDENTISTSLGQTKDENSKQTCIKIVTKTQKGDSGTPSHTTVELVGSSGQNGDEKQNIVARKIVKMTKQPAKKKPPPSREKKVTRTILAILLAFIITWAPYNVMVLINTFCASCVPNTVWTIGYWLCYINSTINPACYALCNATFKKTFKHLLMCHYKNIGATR
Method: (§1) 1. Anticholinergic action in guinea-pig ileum and atria Male Hartley guinea pigs were sacrificed by blowing on the head and bleeding.
The isolated atria were suspended under 0.5 g tension in organ baths containing Tyrode solution gassed with 95% O2 and 5% CO2 at 32° C.
Dose-response curves were obtained by cumulative addition of ACh and repeated in the presence of various concentrations of test compounds, allowing 10 min. equilibration time.
The affinity of test compounds were determined as described for ileum.

[2] = tested on: muscarinic receptor (ileum); test: Anticholinergic action in guinea-pig ileum (antagonism of ACh response, Schild method); conditions: ileum versus heart
Method: as §1
(§2) Responses to acetyllchlloline (ACh) added cumulatively to the baths were isotonically recorded under a tension of 1 g. Dose-response curves of ACh were determined in the absence and presence of test compounds in various concentrations added to the baths 5 min. before ACh application.

[3] = biological target: T2, muscarinic receptor (ileum) (Cavia porcellus, UniProt H0W1Z3); test: as above; conditions: ileum, Tyrode solution, 32° C., test compound 5 min. before ACh; for Kb: read-out: Anticholinergic activity (pA2) Ileum (converted)
T2 construct: from tissue; host or cells: guinea-pig ileal segments (male Hartley)
Method: as §1, §2

[4] = biological target: T3, muscarinic receptor (trachea) (Cavia porcellus, UniProt H0W1Z3); test: Anticholinergic action in guinea-pig trachea (antagonism of ACh response, Schild or van Rossum method); conditions: Tyrode solution, 37° C., 10 minutes equilibration, read-out: Anticholinergic activity (pA2) Trachea (converted)
T3 construct: from tissue; host or cells: guinea-pig tracheal ring strips (male Hartley)
Method: 4. Anticholinergic action in guinea-pig trachea Male Hartley guinea-pigs were killed by blowing on the head and bleeding.
Ring strips of trachea were suspended in organ bath filled with Tyrode solution, kept at 37° C. and gassed with a mixture of 95% O2 and 5% CO2.
Responses to ACh were isometrically recorded under a tension of 1 g. Concentration-Response curves were obtained cumulative addition of ACh and repeated in the presence of various concentrations of test compounds, allowing 10 minutes equilibration time.

[5] = Table 8, isolated atria, Tyrode solution, 32° C., 10 min. equilibration

T3 sequence (H0W1Z3 1-590): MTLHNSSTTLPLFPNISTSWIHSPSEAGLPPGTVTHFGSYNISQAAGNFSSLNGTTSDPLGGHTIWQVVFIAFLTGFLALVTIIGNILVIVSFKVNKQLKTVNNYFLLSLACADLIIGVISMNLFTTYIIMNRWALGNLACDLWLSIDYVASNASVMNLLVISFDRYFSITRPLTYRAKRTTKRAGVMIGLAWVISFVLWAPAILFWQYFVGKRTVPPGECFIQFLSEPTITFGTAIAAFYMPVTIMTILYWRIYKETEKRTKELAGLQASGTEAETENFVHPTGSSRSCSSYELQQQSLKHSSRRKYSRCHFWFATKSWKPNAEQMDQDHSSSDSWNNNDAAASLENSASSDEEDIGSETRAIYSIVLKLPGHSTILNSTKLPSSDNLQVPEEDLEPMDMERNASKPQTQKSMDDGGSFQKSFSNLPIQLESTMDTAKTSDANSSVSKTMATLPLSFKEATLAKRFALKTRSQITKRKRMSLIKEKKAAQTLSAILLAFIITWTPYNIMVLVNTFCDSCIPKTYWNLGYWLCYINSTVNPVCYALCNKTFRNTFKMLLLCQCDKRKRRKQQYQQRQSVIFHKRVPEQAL
T2 sequence (H0W1Z3 1-590): as above

Kb [1, 5]	Kb ([1]; Table 9, atrium)	Kb [4]	Compound	affinity for receptors in ileum as compared to receptors in heart [2]	further results
			Cc1nccn1CCC(C(N)=O)(c1ccccc1)c1ccccc1 [Example 11, 4-(2-Methyl-1-imidazolyl)-2,2-diphenylbutylamide]	10 times	
6.17 nM			Cc1nccn1CCCC(C#N)(c1ccccc1)c1ccccc1 [Example 7]		Kb [3]: 1.12 nM
	28.8 nM	5.25 nM	Cc1n(CCC(C(N)=O)(c2ccccc2)c2ccccc2)cc[n+]1Cc1ccc(F)c(F)c1 [Example 44]		
18.6 nM			CC(C)c1nccn1CCC(C(N)=O)(c1ccccc1)c1ccccc1 [Example 14, 4-(2-isopropyl-1-imidazolyl)-2,2-diphenylbutylamide]	10 times	Kb [3]: 0.676 nM
			Cc1nccn1CCCCC(C#N)(c1ccccc1)c1ccccc1 [Example 8]	10 times	Anticholinergic activity (pA2) Ileum [3]: 8.17; Anticholinergic activity (pA2) Atrium [1, 5]: 7.08
	20 nM	4.57 nM	Cc1n(CCCCC(C(N)=O)(c2ccccc2)c2ccccc2)cc[n+]1Cc1ccccc1 [Example 51]		
	30.2 nM	4.57 nM	Cc1n(CCC(C(N)=O)(c2ccccc2)c2ccccc2)cc[n+]1Cc1ccc(-c2ccccc2)cc1 [Example 50]		

Compound	Kb [1, 5]	Kb ([1]; Table 9, atrium)	Kb [4]	affinity for receptors in ileum as compared to receptors in heart [2]	further results
CCN(CC)CC#CCOC(=O)C(O)(c1ccccc1)C1CCCCC1 (stereo not shown) [Oxybutynin, reference compound]	4.07 nM				
